In one test the test system is Ba/F3-BCR-ABL1-WT cells. The test can be described thus: cells. The settings on record: Mus musculus, 48 h, read-out: Ba/F3-BCR-ABL1-WT IC50 [μM].
Test [1] concerns the target T1, ABL1 (64-515) (Homo sapiens (Human), UniProt P00519). The test can be described thus: Caliper ABL1 (64-515) assay (microfluidic mobility shift). Type of test: biochemical.
Test [2] addresses T1, ABL1 (64-515). The test can be described thus: Radio ABL1 (64-515) assay (radiometric filter-binding). Type of test: biochemical.
Another test deals with BCR-ABL1+KCL-22 cells. The test can be described thus: Acquired resistance in BCR-ABL1+KCL-22 cells in vitro. The note with it: cells treated every 3-4 days. Type of test: cell-based.

A value given as a limit tells only on which side of the number the result lay.

T1 sequence (P00519 64-515): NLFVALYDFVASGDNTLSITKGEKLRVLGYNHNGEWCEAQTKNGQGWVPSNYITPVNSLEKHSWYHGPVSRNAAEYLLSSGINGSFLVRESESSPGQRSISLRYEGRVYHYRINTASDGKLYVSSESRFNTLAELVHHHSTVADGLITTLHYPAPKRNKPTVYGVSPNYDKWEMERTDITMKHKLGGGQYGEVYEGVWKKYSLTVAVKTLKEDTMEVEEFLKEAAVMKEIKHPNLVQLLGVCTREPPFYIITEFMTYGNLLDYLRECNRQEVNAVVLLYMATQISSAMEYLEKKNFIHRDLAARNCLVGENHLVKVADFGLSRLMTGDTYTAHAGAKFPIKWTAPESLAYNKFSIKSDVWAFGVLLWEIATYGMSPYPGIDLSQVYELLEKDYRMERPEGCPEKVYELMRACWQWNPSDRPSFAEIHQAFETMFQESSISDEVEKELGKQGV
Description for Ba/F3-BCR-ABL1-WT cells: To generate Ba/F3 cells that depend on BCR-ABL1 expression for growth and survival, Ba/F3 cells were engineered to express BCR-ABL1 using retroviral transduction with a MSCV based retroviral vector containing a p210 BCR-ABL1 expression cassette. […] These cells are referred to as Ba/F3-BCR-ABL-WT.
Ba/F3-BCR-ABL1-WT cells and Ba/F3-BCR-ABL1-T315I cells were maintained in RPMI1640 media with L-glutamine, HEPES (Lonza) and 10% FBS (Gibco).
For each cell line, the cell density was adjusted to 50 000 cells/mL and 50 μL (2500 cells) added per well of a 384-well assay plate.
Test compounds were resuspended in DMSO at a concentration of 10 mM. A serial three-fold dilution of each compound with DMSO was performed in 384-well plates using the Janus Liquid Dispenser (PerkinElmer). Compound was delivered to the assay plates containing 2500 cells in a 50 μL volume via Acoustic delivery from an ATS-100 (EDC).
Cells were incubated at 37° C. in a humidified environment with 5% carbon dioxide for 48 hours. Britelite plus solution (Perkin Elmer) was prepared according to the manufacturer's instructions and 25 μL added to each well of the assay plate. […] The degree of luminescence correlates with the number of cells in each well. The effect of each inhibitor concentration can therefore be calculated and IC50 values generated.

For `O=C(Nc1ccc(OC(F)(F)Cl)cc1)c1cnc(N2CC[C@@H](O)C2)c(-c2cncnc2)c1` [Example 170, (R)—N-(4-(Chlorodifluoromethoxy)phenyl)-6-(3-hydroxypyrrolidin-1-yl)-5-(pyrimidin-5-yl)nicotinamide], the IC50 in the test on Ba/F3-BCR-ABL1-WT cells is 0.0005 µM.
On to `O=C(Nc1ccc(C(F)(F)C(F)(F)F)cc1)c1cnc(N2CC[C@@H](O)C2)c(-c2cncnc2)c1` [Example 208, (R)-6-(3-Hydroxypyrrolidin-1-yl)-N-(4-(perfluoroethyl)phenyl)-5-(pyrimidin-5-yl)nicotinamide], for which the IC50 in the test with Ba/F3-BCR-ABL1-WT cells was 0.0039 µM; on ABL1 (64-515) [1] it was 0.6 nM; at ABL1 (64-515) [2], < 3 nM.
On the same counts, the results for `CC(F)(F)Oc1ccc(NC(=O)c2cnc(N3CC[C@@H](O)C3)c(-c3cncnc3)c2)cc1` [Example 215, (R)—N-(4-(1,1-Difluoroethoxy)phenyl)-6-(3-hydroxypyrrolidin-1-yl)-5-(pyrimidin-5-yl)nicotinamide] are 0.0246 µM, 7.9 nM and 1.2 nM.
Taken in the same sequence, the figures for `O=C(Nc1ccc(S(F)(F)(F)(F)F)cc1)c1cnc(N2CC[C@@H](O)C2)c(-c2cncnc2)c1` [Example 216, (R)-6-(3-Hydroxypyrrolidin-1-yl)-5-(pyrimidin-5-yl)-N-(4-(pentafluorosulfanyl)phenyl)nicotinamide] were 0.0074 µM, 0.7 nM and 3 nM.
Taken in the same sequence, the figures for `O=C(Nc1ccc(SC(F)(F)Cl)cc1)c1cnc(N2CC[C@@H](O)C2)c(-c2cncc(F)c2)c1` [Example 218, (R)—N-(4-((Chlorodifluoromethyl)thio)phenyl)-5′-fluoro-2-(3-hydroxypyrrolidin-1-yl)-[3,3′-bipyridine]-5-carboxamide] were 0.0009 µM, 0.6 nM and 3 nM.
For the compound `O=C(Nc1ccc(OC(F)(F)Cl)cc1)c1cnc(N2CC[C@@H](CO)[C@@H](O)C2)c(-c2cncnc2)c1` [Example 257], the IC50 amounted to 0.0011 µM with Ba/F3-BCR-ABL1-WT cells, 0.6 nM at ABL1 (64-515) [1] and 3 nM at ABL1 (64-515) [2].
`N#Cc1cncc(-c2cc(C(=O)Nc3ccc(OC(F)(F)Cl)cc3)cnc2N2C[C@@H](O)[C@@H](O)C2)c1` [Example 268]: the results for the IC50 in the test with Ba/F3-BCR-ABL1-WT cells, on ABL1 (64-515) [1] and on ABL1 (64-515) [2] were 0.0032 µM, 0.4 nM and 0.5 nM, respectively.
On the same counts, the results for `N[C@H]1CN(c2ccc(C(=O)Nc3ccc(OC(F)(F)Cl)cc3)cc2-c2cncc(F)c2)C[C@@H]1O` [Example 285, 4-((3S,4S)-3-Amino-4-hydroxypyrrolidin-1-yl)-N-(4-(chlorodifluoromethoxy)phenyl)-3-(5-fluoropyridin-3-yl)benzamide] are 0.0053 µM, 0.6 nM and 1 nM.
For `N#Cc1ccncc1-c1cc(C(=O)Nc2ccc(OC(F)(F)Cl)cc2)cnc1N1C[C@H](O)[C@@H](O)C1` [Example 290, N-(4-(Chlorodifluoromethoxy)phenyl)-4′-cyano-2-((3S,4S)-3,4-dihydroxypyrrolidin-1-yl)-[3,3′-bipyridine]-5-carboxamide], the IC50 on ABL1 (64-515) [1] came out at 0.8 nM; at ABL1 (64-515) [2] it was 2 nM.
`Cc1ncncc1-c1cc(C(=O)Nc2ccc(OC(F)(F)Cl)cc2)ccc1N1C[C@H](O)[C@@H](O)C1` [Example 297, N-(4-(Chlorodifluoromethoxy)phenyl)-4-((3S,4S)-3,4-dihydroxypyrrolidin-1-yl)-3-(4-methylpyrimidin-5-yl)benzamide]: the IC50 with Ba/F3-BCR-ABL1-WT cells worked out at 0.0013 µM; on ABL1 (64-515) [1], 1.4 nM.
For `Cc1cn(-c2cc(NC(=O)c3ccc(C)c(Nc4nccc(-c5cccnc5)n4)c3)cc(C(F)(F)F)c2)cn1` [nilotinib], the “time until acquired resistance” value with BCR-ABL1+KCL-22 cells lay in the range of 18 to 21 days.

The record behind these values is patent US9278981B2, “Compounds and compositions for inhibiting the activity of ABL1, ABL2 and BCR-ABL1” (Novartis AG, priority 2012, dated 2016).
